Laboratory results reported in publication PMC12301332, “Biased antagonism of a series of bicyclic CXCR2 intracellular allosteric modulators” (Frontiers in Pharmacology, 2025).

B1: CXCL7: recombinant human ELR+ chemokine, CXCR2 ligand (PeproTech) (protein, UniProt P02775 59-128, looked up)
Neutrophil-activating peptide …: AELRCMCIKTTSGIHPKNIQSLEVIGKGTHCNQVEVIATLKDGRKICLDPDAPRIKKIVQKKLAGDESAD
modifications: Neutrophil-activating peptide 2

Experiments:
[1] = molecular target: T1, CXCR2 (Homo sapiens, UniProt P25025); assay: NanoBRET-based G protein activation inhibition assay (REGA-SIGN Gαi1 dissociation) in HEK293A.CXCR2 cells; type: cell-based; details: normalized to Imax of navarixin = 100%, n = 3
T1 construct: expressed in transfected cells
T1 sequence (P25025 1-360): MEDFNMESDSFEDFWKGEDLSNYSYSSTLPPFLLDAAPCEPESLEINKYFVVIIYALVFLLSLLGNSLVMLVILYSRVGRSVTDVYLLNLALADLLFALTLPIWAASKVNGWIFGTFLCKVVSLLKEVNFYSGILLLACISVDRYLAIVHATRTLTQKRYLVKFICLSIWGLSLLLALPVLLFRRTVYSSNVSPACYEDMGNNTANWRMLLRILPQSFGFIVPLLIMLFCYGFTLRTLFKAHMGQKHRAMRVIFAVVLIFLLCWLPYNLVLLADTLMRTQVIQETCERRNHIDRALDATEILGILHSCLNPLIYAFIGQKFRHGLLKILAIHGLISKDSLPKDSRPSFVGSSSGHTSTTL
Description: Cells were trypsinized and resuspended at 3 × 10^5 cell/mL in the growth medium, whereafter they were incubated for 2 hours at RT. Cells were transfected in suspension using FuGENE® HD Transfection Reagent at a 3:1 reagent to DNA ratio in Opti-MEMTM I Reduced-Serum Medium, with the final DNA concentration of 1 μg/μL. The transfection mixture was incubated for 10 min at RT before adding it to the cell suspension. Transfected cells were seeded at 3.0 × 10^4 cells/well in a white, clear, flat-bottom 96-well plate coated with 100 μg/mL poly-D-lysin ([…], Sigma Aldrich) and incubated for 48 h at 37°C and 5% CO2. […] (2023)]. Following the 48-h incubation period, cells were washed with the assay buffer. Compounds were serially diluted in 1:500 Nano-Glo® Vivazine^TM working solution (#N2581, Promega), and 90 μL of compound/Vivazine mix was added, followed by incubation for 45 min at 37°C and 5% CO2. Plates were transferred to the FLIPR Penta system (Molecular Devices) at 37°C, and all steps onward are automated and performed by the FLIPR Penta system. After a 10-min equilibration period, the baseline BRET signal was determined by five consecutive reads followed by automatic administration of 10 μL of 10× ligand (Table 1) to the cell plate. Changes in the BRET signal was measured for 10 min, with each read spaced by 2.5 s. […] BRET ratios were extracted from ScreenWorks software (Molecular Devices) and represent the ratio between the acceptor emission of […]2 or mNG (G protein or β-arrestin recruitment, respectively) and NLuc donor emission. The basal BRET ratio was defined as the average BRET ratio of the five consecutive readings preceding ligand addition. Changes in BRET values post ligand administration (ΔBRET) were calculated for each well as a percentage difference to the previously defined basal BRET ratio. Average ΔBRET values were baseline corrected by subtracting the average negative control BRET ratio (unstimulated condition). […] AUCs were normalized to the positive control (stimulated condition); whereafter, dose-response curves were fitted to log (inhibitor) vs response (three parameters) in GraphPad 10.2.0 (GraphPad Software). […] Calculation 1: calculation of the BRET signal. • 1. […] NC correctedΔBRET=Δ[…]. • 4. a. Neg AUC of NC correctedΔBRET=Gα activation read out. b. Pos AUC of NC correctedΔBRET=β-arrestin recruitment.

[2] = molecular target: T1, CXCR2; assay: Bias analysis (bias plot, bias index) of β-arrestin1 recruitment inhibition versus Gαi1 activation inhibition, navarixin as reference; type: cell-based; details: all ELR+ chemokines; navarixin as reference antagonist
Description: For signaling bias calculations, constraints were set to bottom values equal to zero. The calculated top values generated by nonlinear fit log (inhibitor) vs response (three parameters) in GraphPad 10.2.1 were taken as Imax. […] The bias index values were calculated, as is shown in calculation 2. Briefly, log(Imax/IC50) was calculated. […] Finally, the bias index was calculated by subtracting the ∆log (Imax/IC50) of the tested compound from the stated reference pathway from that of the pathway of interest. […] The statistical significance of H1 was evaluated using a one-sample T-test with Benjamini-Hochberg correction applied for multiple comparisons, whereas H2 was assessed using a one-way ANOVA followed by Tukey’s test.
Bias index=∆LogImax/IC50P1:β−arr1−∆LogImax/IC50P2:Gai1 .
Bias plots are equimolar comparisons between the two pathways of interest.

[3] = molecular target: T1, CXCR2; assay: NanoBRET β-arrestin1 recruitment inhibition assay (NanoLux) in HEK293A cells; type: cell-based; details: normalized to Imax of navarixin = 100%, n = 3
Description: Cells were trypsinized and resuspended at 3 × 10^5 cell/mL in the growth medium, whereafter they were incubated for 2 hours at RT. Cells were transfected in suspension using FuGENE® HD Transfection Reagent at a 3:1 reagent to DNA ratio in Opti-MEMTM I Reduced-Serum Medium, with the final DNA concentration of 1 μg/μL. The transfection mixture was incubated for 10 min at RT before adding it to the cell suspension. Transfected cells were seeded at 3.0 × 10^4 cells/well in a white, clear, flat-bottom 96-well plate coated with 100 μg/mL poly-D-lysin ([…], Sigma Aldrich) and incubated for 48 h at 37°C and 5% CO2. HEK293A cells were transiently co-transfected with plasmids encoding β-arrestin1 protein tagged with NLuc (donor) and CXCR2 protein tagged with mNeonGreen (mNG) acceptor in a 1:10 donor to acceptor ratio, as described previously ([Luís et al., 2022]). All subsequent steps are identical to those in “NanoBRET-based G protein activation inhibition assay,” which are described above. Measurements were acquired using a 440- to 480-nm donor emission filter (#0200-6179, Molecular Devices) and a 515- to 575-nm acceptor emission filter (#0200-6203, Molecular Devices) BRET ratios were extracted from ScreenWorks software (Molecular Devices) and represent the ratio between the acceptor emission of […]2 or mNG (G protein or β-arrestin recruitment, respectively) and NLuc donor emission. The basal BRET ratio was defined as the average BRET ratio of the five consecutive readings preceding ligand addition. Changes in BRET values post ligand administration (ΔBRET) were calculated for each well as a percentage difference to the previously defined basal BRET ratio. Average ΔBRET values were baseline corrected by subtracting the average negative control BRET ratio (unstimulated condition). […] AUCs were normalized to the positive control (stimulated condition); whereafter, dose-response curves were fitted to log (inhibitor) vs response (three parameters) in GraphPad 10.2.0 (GraphPad Software). […] Calculation 1: calculation of the BRET signal. • 1. […] NC correctedΔBRET=Δ[…]. • 4. a. Neg AUC of NC correctedΔBRET=Gα activation read out. b. Pos AUC of NC correctedΔBRET=β-arrestin recruitment.

[4] = molecular target: T1, CXCR2; parameters: method as in Boon et al., 2024; details: agonist concentration used in NanoBRET assays; ref Boon et al., 2024; cited from earlier work
[5] = molecular target: T1, CXCR2; parameters: method as in Boon et al., 2024; details: agonist concentration used in NanoBRET assays; ref Boon et al., 2024; cited from earlier work; remark: listed apart in the source

Molecule	Imax Gαi1 (maximum observed inhibitory effect) ([1]; CXCL1 at EC80) [%]	Imax Gαi1 (maximum observed inhibitory effect) ([1]; CXCL2 at EC80) [%]	Imax Gαi1 (maximum observed inhibitory effect) ([1]; CXCL3 at EC80) [%]	Imax Gαi1 (maximum observed inhibitory effect) ([1]; CXCL5 at EC80) [%]	Imax Gαi1 (maximum observed inhibitory effect) ([1]; CXCL6 at EC80) [%]	Imax Gαi1 (maximum observed inhibitory effect) ([1]; CXCL7 at EC80) [%]	Imax Gαi1 (maximum observed inhibitory effect) ([1]; CXCL8 at EC80) [%]	bias profile (bias plot), β-arrestin1 recruitment inhibition vs Gαi1 activation inhibition [2]	Imax βarr1 (maximum observed inhibitory effect) ([3]; CXCL1 at EC80) [%]	Imax βarr1 (maximum observed inhibitory effect) ([3]; CXCL2 at EC80) [%]	Imax βarr1 (maximum observed inhibitory effect) ([3]; CXCL3 at EC80) [%]	Imax βarr1 (maximum observed inhibitory effect) ([3]; CXCL5 at EC80) [%]	Imax βarr1 (maximum observed inhibitory effect) ([3]; CXCL6 at EC80) [%]	Imax βarr1 (maximum observed inhibitory effect) ([3]; CXCL7 at EC80) [%]	Imax βarr1 (maximum observed inhibitory effect) ([3]; CXCL8 at EC80) [%]	β-arrestin EC80 [4] [nM]	G-protein EC80 [5] [nM]
C[C@H](CO)Nc1nc(SCc2cccc(Cl)c2F)nc2[nH]c(=O)sc12 [AZ10397767, reference compound]	100	100	98.8	95.7	100	100	98.5	bias toward the inhibition of β-arrestin1 recruitment	100	100	100	100	100	100	100	–	–
B1	–	–	–	–	–	–	–	–	–	–	–	–	–	–	–	100.70	4.09
